Experimental data taken from patent US11173165B2, “Optimizing mifepristone levels for Cushing's patients” (Corcept Therapeutics, Inc., priority 2015, dated 2021).

Experiments:
[1] = target: glucocorticoid receptor (GR) (Homo sapiens, UniProt P04150); conditions: cited from earlier work
[2] = cited from earlier work
[3] = test system: patients with a diagnosis of Cushing's syndrome; assay: Optimal response to mifepristone in Phase III open label study of Cushing's syndrome; type: in vivo, human; conditions: responders who completed the study
Protocol: This example provides an open label study of the safety and efficacy in the treatment of Cushing's syndrome. The study was a Phase III trial performed using several investigators at several different sites. […] The number of patients was 50. Patients eligible for randomization were male or nonpregnant female outpatients, and inpatients, if clinically required, with a diagnosis of Cushing's syndrome. Mifepristone was used as the test drug at 300 (1×300 mg tablet), 600 (2×300 mg tablet), 900 (3×300 mg tablet) and 1200 mg (4×300 mg tablet) once a day by mouth. Safety visits occurred at Days 21 and 35. If clinically necessary, a patient was treated as an inpatient. If early termination occurred prior to day 35, the patient returned for a safety follow up visit at day 35. The primary efficacy endpoint was the proportion of patients with at least a 25% reduction from baseline on a standard two hour oral glucose tolerance test or a […] in their diastolic blood pressure at study end (6 months). The secondary endpoints were: (1) the patient's global impression; and (2) reduction in previously used antihypertensive medication. The criteria for assessing study efficacy objective was the proportion of patients with at least a 25% reduction from baseline on a standard two hour oral glucose tolerance test or a […] in their diastolic blood pressure at study end (6 months).

[4] = in vivo; cited from earlier work
[5] = Mifepristone trough plasma level (MIFE-Ctrough) in Phase III open label study of Cushing's syndrome; type: in vivo, human; conditions: for MIFE-Ctrough, Mean / MIFE-Ctrough, Max / MIFE-Ctrough, Median / MIFE-Ctrough, Min: responders who completed the study
Protocol: Three (3) mL of blood was collected from a patient in a vacutainer containing sodium heparin. The blood was centrifuged and the resulting plasma frozen at −70 to −80° C. until assay. For analysis, the plasma samples were warmed and prepared as follows: • 1. Using a pipette, 50.0 μL of the sample was aliquoted into a 16×100-mm glass test tube. When a partial volume aliquot was needed, the aliquot was added to the tube and diluted to full volume with blank human plasma. • 2. 20.0 μL of the internal standard, mifepristone-d4 (5.00 μg/mL in acetonitrile), was added to the tube, resulting in 2000.0 ng/mL mifepristone-d4 in plasma. • 3. The tube was vortexed for approximately 1 minute. • 4. 50.0 μL of 6% ammonium hydroxide was added to the tube. • 5. The tube was vortexed for approximately 1 minute. • 6. 2.00 mL of MTBE was added to the tube. • 7. 2.00 mL of hexane was added to the tube. • 8. The tube was vortexed for at least 15 minutes. • 9. The tube was centrifuged for at least 10 minutes at 2500 RPM (575×g). • 10. The aqueous layer was frozen in a freezer set to maintain −70° C. • 11. […] The tube was vortexed for approximately 1 minute. • 15. The tube was sonicated for approximately 1 minute. • 16. The tube was vortexed for approximately 1 minute. • 17. The sample was transferred to a labeled injection vial or well plate. • 18. The vial or plate was capped and checked for air bubbles. The sample was then analyzed by reverse-phase high pressure liquid chromatography using a water:acetonitrile:formic acid (60:40:0.1) mobile phase (isocratic) at a flow rate of 0.3 mL/min. The column was a phenyl column maintained at 50° C. Mifepristone elutes at 4.2 minutes. Following elution, the mobile phase was nebulized using heated nitrogen in a Z-spray source/interface and the ionized compounds detected using a tandem quadrupole mass spectrometer. Mifepristone (molecular weight of 430 g/mol) was detected at m/z 372.30. The internal standard mifepristone-d4 was detected at m/z 376.30. The ratio of the mifepristone peak height to the mifepristone-d4 peak height was calculated. The plasma concentration of mifepristone was then calculated by comparing the experimental ratio to a standard curve of mifepristone:mifepristone-d4 peak height ratio v. mifepristone concentration. The standard curve was generated by first measuring the mifepristone:mifepristone-d4 peak height ratios for mifepristone samples at 10, 20, 50, 100, 200, 500, 1000 and 2000 ng/mL where the mifepristone-d4 internal standard has a concentration of 2000 ng/mL. The mifepristone:mifepristone-d4 peak height ratios of these known solutions were then fit to a power equation (Mass Lynx by Micromass, Beverly, Mass.), and the sample with unknown concentrations of mifepristone was compared. […]

[6] = at first response, including early terminators

glucocorticoid receptor (GR), sequence (P04150 whole entry): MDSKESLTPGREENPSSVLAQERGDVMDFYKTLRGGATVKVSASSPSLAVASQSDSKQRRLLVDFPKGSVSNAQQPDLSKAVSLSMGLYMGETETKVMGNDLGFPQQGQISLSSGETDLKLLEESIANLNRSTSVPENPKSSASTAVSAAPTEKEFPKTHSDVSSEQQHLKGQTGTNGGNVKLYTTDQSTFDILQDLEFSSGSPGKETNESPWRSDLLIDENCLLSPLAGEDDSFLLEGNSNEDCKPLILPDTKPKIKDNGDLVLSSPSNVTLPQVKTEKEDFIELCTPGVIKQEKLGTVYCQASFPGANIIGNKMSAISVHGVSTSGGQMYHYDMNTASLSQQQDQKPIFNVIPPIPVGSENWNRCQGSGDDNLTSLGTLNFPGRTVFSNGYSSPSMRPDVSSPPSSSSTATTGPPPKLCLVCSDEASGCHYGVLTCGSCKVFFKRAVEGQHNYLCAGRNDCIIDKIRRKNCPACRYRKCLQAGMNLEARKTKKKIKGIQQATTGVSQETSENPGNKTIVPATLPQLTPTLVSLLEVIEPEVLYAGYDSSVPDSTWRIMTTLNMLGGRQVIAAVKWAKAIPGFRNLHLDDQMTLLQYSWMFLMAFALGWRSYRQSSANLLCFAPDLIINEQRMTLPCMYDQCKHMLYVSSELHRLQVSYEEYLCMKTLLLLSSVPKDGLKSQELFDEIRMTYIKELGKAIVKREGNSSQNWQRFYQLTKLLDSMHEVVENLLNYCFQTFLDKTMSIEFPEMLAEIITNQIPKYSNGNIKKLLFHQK

Compound: CC#C[C@]1(O)CC[C@H]2[C@@H]3CCC4=CC(=O)CCC4=C3[C@@H](c3ccc(N(C)C)cc3)C[C@@]21C [mifepristone, 17-beta-hydroxy-11-beta-(4-dimethyl-aminophenyl)-17-alpha-(1-propynyl)-estra-4,9-dien-3-one]
- binding to the glucocorticoid receptor (GR) [1]: high affinity
- blood serum level to be maintained ([2]; patients suffering from a mental disorder): about 1300 ng/mL
- difference in blood serum levels from one patient to another ([2]; same dose, different patients): ≤ 800%
- Cumulative Optimal Response (%) ([3]; dose 300): 20%
- Optimal Response (%) ([3]; dose 300): 20%
- Cumulative Optimal Response (%) ([3]; dose 600): 40%
- Optimal Response (%) ([3]; dose 600): 20%
- Cumulative Optimal Response (%) ([3]; dose 900): 60%
- Optimal Response (%) ([3]; dose 900): 20%
- Cumulative Optimal Response (%) ([3]; dose 1200): 100%
- Optimal Response (%) ([3]; dose 1200): 40%
- LD50 dose [4]: about 1000 mg/kg
- MIFE-Ctrough at Response, Max [5, 6]: 4.21 µg/mL
- MIFE-Ctrough at Response, Mean [5, 6]: 1.96868 µg/mL
- MIFE-Ctrough at Response, Median [5, 6]: 1.77 µg/mL
- MIFE-Ctrough at Response, Min [5, 6]: 0.448 µg/mL
- MIFE-ΔCtrough from Prior Dose, Max [5, 6]: 2017.00 ng/mL
- MIFE-ΔCtrough from Prior Dose, Mean [5, 6]: 221.50 ng/mL
- MIFE-ΔCtrough from Prior Dose, Median [5, 6]: 250.00 ng/mL
- MIFE-ΔCtrough from Prior Dose, Min [5, 6]: -860.00 ng/mL
- MIFE-Ctrough, Mean ([5]; dose 300 (mg once a day by mouth)): 1.77428 µg/mL
- MIFE-Ctrough, Max ([5]; dose 300): 4.13 µg/mL
- MIFE-Ctrough, Median ([5]; dose 300): 1.455 µg/mL
- MIFE-Ctrough, Min ([5]; dose 300): 0.82 µg/mL
- MIFE-Ctrough, Mean ([5]; dose 600 (mg once a day by mouth)): 1.95166 µg/mL
- MIFE-Ctrough, Max ([5]; dose 600): 3.85 µg/mL
- MIFE-Ctrough, Median ([5]; dose 600): 1.63 µg/mL
- MIFE-Ctrough, Min ([5]; dose 600): 0.89 µg/mL
- MIFE-Ctrough, Mean ([5]; dose 900 (mg once a day by mouth)): 2.1077 µg/mL
- MIFE-Ctrough, Max ([5]; dose 900): 4.23 µg/mL
- MIFE-Ctrough, Median ([5]; dose 900): 1.82 µg/mL
- MIFE-Ctrough, Min ([5]; dose 900): 0.992 µg/mL
- MIFE-Ctrough, Mean ([5]; dose 1200 (mg once a day by mouth)): 2.29286 µg/mL
- MIFE-Ctrough, Max ([5]; dose 1200): 5.44 µg/mL
- MIFE-Ctrough, Median ([5]; dose 1200): 2.0225 µg/mL
- MIFE-Ctrough, Min ([5]; dose 1200): 1.06 µg/mL
- blood serum level to be maintained for a therapeutic response ([5]; patients suffering from Cushing's syndrome): at least 1631 ng/mL
